Assay results from patent US10053454B2 (Bristol-Myers Squibb Company, priority 2013, dated 2018).

What follows are molecules tested against BRD4 (Homo sapiens, UniProt O60885) (assay: Time Resolved Fluorescence Resonance Energy Transfer (TR-FRET) binding assay). Settings: one of the FRET assays described (BRD4 construct not given).
For `Cc1noc(C)c1-c1cc(C(N)=O)c2c(c1)c1ccc(C(=O)N3CCOCC3)cc1n2S(C)(=O)=O` [Example 5, 3-(3,5-dimethyl-4-isoxazolyl)-9-(methylsulfonyl)-7-(4-morpholinylcarbonyl)-9H-carbazole-1-carboxamide], the IC50 was under 50 nM. Molecule `Cc1oncc1-c1cc(C(N)=O)c2c(c1)c1ccc(C(=O)N3C[C@@H](C)O[C@@H](C)C3)cc1n2CC1CC1` [Example 57, 9-(cyclopropylmethyl)-7-((cis-2,6-dimethyl-4-morpholinyl)carbonyl)-3-(5-methyl-4-isoxazolyl)-9H-carbazole-1-carboxamide] has an IC50 of under 500 nM. For `Cc1noc(C)c1-c1cc(C(N)=O)c2[nH]c3cc(C(=O)N4CCCCC4)ccc3c2c1` [Example 1, 3-(3,5-dimethyl-4-isoxazolyl)-7-(1-piperidinylcarbonyl)-9H-carbazole-1-carboxamide], the IC50 was under 500 nM. `Cc1noc(C)c1-c1cc(C(N)=O)c2c(c1)c1ccc(C(C)(C)O)cc1n2CC1CC1` [Example 53, 9-(cyclopropylmethyl)-3-(3,5-dimethyl-4-isoxazolyl)-7-(1-hydroxy-1-methylethyl)-9H-carbazole-1-carboxamide] gave an IC50 of under 500 nM. `Cc1noc(C)c1-c1cc(C#N)c2[nH]c3cc(C(=O)N4CCOCC4)ccc3c2c1` [Example 58, 3-(3,5-dimethyl-4-isoxazolyl)-7-(4-morpholinylcarbonyl)-9H-carbazole-1-carbonitrile] was tested, and the IC50 was under 5000 nM. `Cc1noc(C)c1-c1cc(C#N)c2c(c1)c1ccc(C(=O)N3CCOCC3)cc1n2CC1CC1` [Example 59, 9-(cyclopropylmethyl)-3-(3,5-dimethyl-4-isoxazolyl)-7-(4-morpholinylcarbonyl)-9H-carbazole-1-carbonitrile] showed an IC50 of under 5000 nM. `Cc1noc(C)c1-c1cc(C(N)=O)c2[nH]c3cc(C(=O)N4CCOCC4)ccc3c2c1` [Example 3, 3-(3,5-dimethyl-4-isoxazolyl)-7-(4-morpholinylcarbonyl)-9H-carbazole-1-carboxamide] showed an IC50 of under 500 nM. With `Cc1noc(C)c1-c1cc(C(N)=O)c2c(c1)c1ccc(C(=O)N3CCC(F)(F)CC3)cc1n2S(C)(=O)=O` [Example 9, 7-((4,4-difluoro-1-piperidinyl)carbonyl)-3-(3,5-dimethyl-4-isoxazolyl)-9-(methylsulfonyl)-9H-carbazole-1-carboxamide] the IC50 was under 50 nM. Work on `Cc1noc(C)c1-c1cc(C(N)=O)c2c(c1)c1cc(S(C)(=O)=O)ccc1n2CC1CC1` [Example 78, 9-(cyclopropylmethyl)-3-(3,5-dimethyl-4-isoxazolyl)-6-(methylsulfonyl)-9H-carbazole-1-carboxamide] yielded an IC50 of under 50 nM. `Cc1noc(C)c1-c1cc(C(N)=O)c2c(c1)c1ccc(C(=O)N3CCCC(N(C)C)C3)cc1n2S(C)(=O)=O` (stereo not shown) [Example 10, 7-((3-(dimethylamino)-1-piperidinyl)carbonyl)-3-(3,5-dimethyl-4-isoxazolyl)-9-(methylsulfonyl)-9H-carbazole-1-carboxamide] gave an IC50 of under 50 nM. For `Cc1noc(C)c1-c1cc(C(N)=S)c2[nH]c3cc(C(=O)N4CCOCC4)ccc3c2c1` [Example 64, 3-(3,5-dimethyl-4-isoxazolyl)-7-(4-morpholinylcarbonyl)-9H-carbazole-1-carbothioamide], the IC50 was under 5000 nM. `CC(=O)n1c2cc(C(=O)N3C[C@@H](C)O[C@@H](C)C3)ccc2c2cc(-c3c(C)noc3C)cc(C(N)=O)c21` [Example 60, 9-acetyl-3-(3,5-dimethyl-4-isoxazolyl)-7-(cis-2,6-dimethylmorpholine-4-carbonyl)-9H-carbazole-1-carboxamide] was tested, and the IC50 was under 5000 nM. In the case of `Cc1noc(C)c1-c1cc(C(N)=O)c2c(c1)c1ccc(CN3CCOCC3)cc1n2CC1CC1` [Example 51, 9-(cyclopropylmethyl)-3-(3,5-dimethyl-4-isoxazolyl)-7-(4-morpholinylmethyl)-9H-carbazole-1-carboxamide], the IC50 is reported as under 500 nM. Molecule `Cc1noc(C)c1-c1cc(C(N)=O)c2c(c1)c1ccc(C(=O)N3CCS(=O)(=O)CC3)cc1n2S(C)(=O)=O` [Example 15, 3-(3,5-dimethyl-4-isoxazolyl)-7-((1,1-dioxido-4-thiomorpholinyl)carbonyl)-9-(methylsulfonyl)-9H-carbazole-1-carboxamide] has an IC50 of under 5000 nM. `Cc1noc(C)c1-c1cc(C(N)=O)c2c(c1)c1cc(Br)c(Br)cc1n2CC1CC1` [Example 35, 6,7-dibromo-9-(cyclopropylmethyl)-3-(3,5-dimethyl-4-isoxazolyl)-9H-carbazole-1-carboxamide] gave an IC50 of under 500 nM. In the case of `CCNC(=O)Nc1ccc2c3cc(-c4c(C)noc4C)cc(C(N)=O)c3n(CC3CC3)c2c1` [Example 31, 9-(cyclopropylmethyl)-3-(3,5-dimethyl-4-isoxazolyl)-7-((ethylcarbamoyl)amino)-9H-carbazole-1-carboxamide], the IC50 is reported as under 500 nM. `Cc1noc(C)c1-c1cc(C(N)=O)c2c(c1)c1ccc(C(=O)N3CNC(=O)C3)cc1n2S(C)(=O)=O` [Example 19, 3-(3,5-dimethyl-4-isoxazolyl)-9-(methylsulfonyl)-7-((4-oxo-1-imidazolidinyl)carbonyl)-9H-carbazole-1-carboxamide] showed an IC50 of under 500 nM. With `CCn1c2cc(C(=O)N3CCOCC3)ccc2c2cc(-c3c(C)noc3C)cc(C(N)=S)c21` [Example 67, 3-(3,5-dimethyl-4-isoxazolyl)-9-ethyl-7-(4-morpholinylcarbonyl)-9H-carbazole-1-carbothioamide] the IC50 was under 500 nM. Molecule `CCOC(=O)Nc1ccc2c3cc(-c4c(C)noc4C)cc(C(N)=O)c3n(CC3CC3)c2c1` [Example 32, Ethyl(8-carbamoyl-9-(cyclopropylmethyl)-6-(3,5-dimethyl-4-isoxazolyl)-9H-carbazol-2-yl)carbamate] has an IC50 of under 5000 nM. Work on `Cc1noc(C)c1-c1cc(C(N)=O)c2c(c1)c1ccc(-c3ccncc3)cc1n2CC1CC1` [Example 36, 9-(cyclopropylmethyl)-3-(3,5-dimethyl-4-isoxazolyl)-7-(4-pyridinyl)-9H-carbazole-1-carboxamide] yielded an IC50 of under 500 nM. Work on `Cc1noc(C)c1-c1cc(C(N)=O)c2c(c1)c1ccc(C(=O)N3C[C@@H](C)O[C@@H](C)C3)cc1n2S(=O)(=O)C1CC1` [Example 88, 9-(cyclopropylsulfonyl)-3-(3,5-dimethyl-4-isoxazolyl)-7-((cis-2,6-dimethyl-4-morpholinyl)carbonyl)-9H-carbazole-1-carboxamide] yielded an IC50 of under 50 nM. `CC(=O)Nc1ccc2c3cc(-c4c(C)noc4C)cc(C(N)=O)c3n(CC3CC3)c2c1` [Example 29, 7-acetamido-9-(cyclopropylmethyl)-3-(3,5-dimethyl-4-isoxazolyl)-9H-carbazole-1-carboxamide] showed an IC50 of under 500 nM. `Cc1noc(C)c1-c1cc(C(N)=O)c2c(c1)c1ccc(C(=O)N3CCCOCC3)cc1n2S(=O)(=O)C1CC1` [Example 25, 9-(cyclopropylsulfonyl)-3-(3,5-dimethyl-4-isoxazolyl)-7-(1,4-oxazepan-4-ylcarbonyl)-9H-carbazole-1-carboxamide] showed an IC50 of under 50 nM. Molecule `Cc1nocc1-c1cc(C(N)=O)c2c(c1)c1ccc(C(=O)N3C[C@@H](C)O[C@@H](C)C3)cc1n2CC1CC1` [Example 56, 9-(cyclopropylmethyl)-7-((cis-2,6-dimethyl-4-morpholinyl)carbonyl)-3-(3-methyl-4-isoxazolyl)-9H-carbazole-1-carboxamide] has an IC50 of under 500 nM. In the case of `Cc1noc(C)c1-c1cc(C(N)=O)c2c(c1)c1ccc(Br)cc1n2CC1CC1` [Example 34, 7-bromo-9-(cyclopropylmethyl)-3-(3,5-dimethyl-4-isoxazolyl)-9H-carbazole-1-carboxamide], the IC50 is reported as under 500 nM. Molecule `Cc1noc(C)c1-c1cc(C(N)=O)c2c(c1)c1ccc(N(c3nccs3)c3nccs3)cc1n2CC1CC1` [Example 30, 9-(cyclopropylmethyl)-3-(3,5-dimethyl-4-isoxazolyl)-7-(di-1,3-thiazol-2-ylamino)-9H-carbazole-1-carboxamide] has an IC50 of under 500 nM. Molecule `Cc1noc(C)c1-c1cc(-c2nnc[nH]2)c2c(c1)c1ccc(C(=O)N3C[C@@H](C)O[C@@H](C)C3)cc1n2CC1CC1` [Example 85, 9-(cyclopropylmethyl)-3-(3,5-dimethyl-4-isoxazolyl)-7-((cis-2,6-dimethyl-4-morpholinyl)carbonyl)-1-(1H-1,2,4-triazol-3-yl)-9H-carbazole] has an IC50 of under 500 nM. With `Cc1noc(C)c1-c1cc(C(N)=O)c2c(c1)c1ccc(N3CCCCC3=O)cc1n2CC1CC1` [Example 42, 9-(cyclopropylmethyl)-3-(3,5-dimethyl-4-isoxazolyl)-7-(2-oxo-1-piperidinyl)-9H-carbazole-1-carboxamide] the IC50 was under 500 nM. Molecule `Cc1noc(C)c1-c1cc(C(N)=O)c2c(c1)c1c(S(C)(=O)=O)cccc1n2CC1CC1` [Example 81, 9-(cyclopropylmethyl)-3-(3,5-dimethyl-4-isoxazolyl)-5-(methylsulfonyl)-9H-carbazole-1-carboxamide] has an IC50 of under 50 nM. `Cc1noc(C)c1-c1cc(C(N)=S)c2[nH]c3cc(C(=S)N4CCOCC4)ccc3c2c1` [Example 63, 3-(3,5-dimethyl-4-isoxazolyl)-7-(4-morpholinylcarbonothioyl)-9H-carbazole-1-carbothioamide] showed an IC50 of under 500 nM. `Cc1noc(C)c1-c1cc(C(N)=O)c2c(c1)c1ccc(N(C)C)cc1n2CC1CC1` [Example 38, 9-(cyclopropylmethyl)-7-(dimethylamino)-3-(3,5-dimethyl-4-isoxazolyl)-9H-carbazole-1-carboxamide] was tested, and the IC50 was under 50 nM. In the case of `Cc1noc(C)c1-c1cc(C(N)=O)c2c(c1)c1c(C(=O)N3C[C@@H](C)O[C@@H](C)C3)cc(C(F)(F)F)cc1n2S(C)(=O)=O` [Example 73, 3-(3,5-dimethyl-4-isoxazolyl)-5-((cis-2,6-dimethyl-4-morpholinyl)carbonyl)-9-(methylsulfonyl)-7-(trifluoromethyl)-9H-carbazole-1-carboxamide], the IC50 is reported as under 500 nM. Work on `Cc1noc(C)c1-c1cc(C(N)=O)c2c(c1)c1ccc(C(=O)N3CCCOCC3)cc1n2S(C)(=O)=O` [Example 17, 3-(3,5-dimethyl-4-isoxazolyl)-9-(methylsulfonyl)-7-(1,4-oxazepan-4-ylcarbonyl)-9H-carbazole-1-carboxamide] yielded an IC50 of under 50 nM. With `Cc1noc(C)c1-c1cc(C(N)=O)c2c(c1)c1ccc(S(C)(=O)=O)cc1n2CC1CC1` [Example 80, 9-(cyclopropylmethyl)-3-(3,5-dimethylisoxazol-4-yl)-7-(methylsulfonyl)-9H-carbazole-1-carboxamide] the IC50 was under 50 nM.
